What is called inhibition is the change of the read-out against control, counted positive when it falls.

In the experiment the target is T1, human vasopressin V2 receptor subtype (Homo sapiens, UniProt P30518).
T1 construct: host or cells: CHO cells, stably transfected (pZeoSV vector)
T1 sequence (P30518 whole entry): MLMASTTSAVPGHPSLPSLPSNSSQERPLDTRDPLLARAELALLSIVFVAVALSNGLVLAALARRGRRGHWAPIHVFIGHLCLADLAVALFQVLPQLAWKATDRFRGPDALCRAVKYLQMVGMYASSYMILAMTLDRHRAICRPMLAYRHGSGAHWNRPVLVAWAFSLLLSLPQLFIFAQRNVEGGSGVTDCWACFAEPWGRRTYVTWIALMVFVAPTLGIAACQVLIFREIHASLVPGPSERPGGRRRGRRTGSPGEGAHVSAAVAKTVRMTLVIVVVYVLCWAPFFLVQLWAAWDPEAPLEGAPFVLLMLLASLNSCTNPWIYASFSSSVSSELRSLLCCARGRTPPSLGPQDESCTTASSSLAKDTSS
In words: Vasopressin binding in CHO cell membranes expressing human vasopressin V2 subtype receptors ([3H]arginine vasopressin radioligand binding). The settings on record: 100 nM. How it is done:
Vasopressin Binding in Chinese Hamster Ovary Cell Membranes Expressing Human Vasopressin V2 Subtype Receptors
Chinese Hamster Ovary (CHO) cells stably transfected with the human V2 subtype receptors were obtained from M. Thibonnier, Case Western Reserve University School of Medicine, Cleveland, Ohio.
The trypsin is removed by aspiration and the cells dislodged by tapping. Cell Culture medium (e.g. 30 mL for 1:30 split) is immediately added and mixed well to inactivate trypsin. 1 mL of detached cells is added to new culture flasks containing fresh Cell Culture medium (e.g. into 25 mL per T-150 flask), and mixed gently. The cells are incubated at 37° C. in 5% CO2. The medium is changed at 3 to 4 day interval (or as appropriate). […] All steps are done under sterile conditions.
The cells are washed twice gently with Hank's Balanced Salt solution (e.g. use 10 mL per T-150 flask). […] The contents are transferred to centrifuge tubes (50 mL) kept in ice bath. All subsequent steps are done at 4° C. The tubes are centrifuged at 300×g for 15 min (1380 rpm on SORVAL, Model RT6000D, using the rotor for 50 mL tubes). The supernatant is discarded and the cells suspended in homogenizing buffer(10 mM Tris-HCl containing 0.25 M sucrose and 1 mM EDTA, pH 7.4) ensuring that the volume of the buffer is about ten times the volume of the cell pellet. The cells are pooled into a centrifuge tube (50 mL) and homogenized with Polytron at setting 6 for 10 sec. The homogenate is transferred into a Potter-Elvjehm homogenizer and homogenized with 3 strokes. The homogenate is centrifuged at 1500×g for 60 min at 4° C. (3100 rpm using SORVAL, model RT6000D, using the rotor for 50 mL tubes). The pellet is discarded. The supernatant is centrifuged at 100,000×g for 60 min. at 4° C. (Beckman L8-80M ultracentrifuge; spin at 37,500 rpm with rotor type 70 Ti for 50 mL tubes; 38,000 rpm with type 80Ti for 15 mL tubes; or 35,800 rpm with rotor type 45Ti). The supernantant is discarded and the pellet suspended in 3 to 4 mL of Tris buffer (50 mM TRIS-HCl, pH 7.4). The protein content is estimated by the Bradford or Lowry method. The volume of the membrane suspension is adjusted with the membrane buffer (50 mM Tris-HCl containing 0.1% BSA and 0.1 mM PMSF) to give 3.0 mg/mL (or as appropriate) of protein. The membranes are aliquoted and stored at −70° C.
In wells of a 96-well format microtiter plate, is added 90, 110 or 130 μL (to make up a final volume of 200 μL) of assay buffer containing 50 mM of Tris-HCl (pH 7.4), […], 1 mg % aprotinin, 1 mg % leupeptin, 2 mg % 1,10-phenanthroline, 10 mg % trypsin inhibitor, and 0.1 mM PMSF. The inhibitors are added on the day of the experiment. The components are mixed at room temperature, and then kept in ice bath following adjustment of the pH to 7.4. […] For vasopressin and other peptide ligands 20 μL of 50% DMSO is added and the assay buffer volume is adjusted accordingly. To each well is added 50 μL of frozen membrane suspension thawed immediately prior to use and diluted in assay buffer to the required concentration (equivalent to 25 to 50 μg of protein/well as needed). 20 μL of 8 nM [^3H]arginine vasopressin ligand in the assay buffer, prepared just before use is added and incubated at room temperature for 60 min. shaking the plate on a mechanical shaker for the first 15 min. The incubation is stopped by rapid filtration of the plate contents followed by wash with ice-cold buffer (50 mM Tris-HCl, pH 7.4) using a cell harvester (Tomtek and Printed filtermat-B filter paper). The filter paper is thoroughly dried (7–12 min. in a microwave oven) and impregnated with MeltiLex B/H melt-on scintillation wax sheets and the radioactivity counted in a betaplate scintillation counter.
Binding data is either reported as percent inhibition at a certain concentration or if an IC50 was calculated, as a nanomolar concentration.
For `COc1ccccc1-c1ccc(C(=O)N2Cc3ccc(C(=O)NCc4ccccn4)n3Cc3ccccc32)cc1C` [Example 24, 10-[(2′-Methoxy-2-methyl-[1,1′-biphenyl]-4-yl)carbonyl]-N-(2-pyridinylmethyl)-10,11-dihydro-5H-pyrrolo[2,1-c][1,4]benzodiazepine-3-carboxamide], testing at 0.1 µM gave an inhibition of 26%. `COc1cccc(-c2ccc(C(=O)N3Cc4ccc(C(=O)NCc5ccccn5)n4Cc4ccccc43)cc2C)c1` [Example 25, 10-[(3′-Methoxy-2-methyl-[1,1′-biphenyl]-4-yl)carbonyl]-N-(2-pyridinylmethyl)-10,11-dihydro-5H-pyrrolo[2,1-c][1,4]benzodiazepine-3-carboxamide] showed an inhibition at 0.1 µM of 33%. Under `COc1ccccc1-c1ccc(C(=O)N2Cc3ccc(C(=O)NCc4ccccn4)n3Cc3ccccc32)cc1` [Example 26, 10-[(2′-Methoxy-[1,1′-biphenyl]-4-yl)carbonyl]-N-(2-pyridinylmethyl)-10,11-dihydro-5H-pyrrolo[2,1-c][1,4]benzodiazepine-3-carboxamide] stands 23%; under `Cc1ccccc1-c1ccc(C(=O)N2Cc3ccc(C(=O)NCc4ccccn4)n3Cc3ccccc32)cc1` [Example 27, 10-[(2′-Methyl-[1,1′-biphenyl]-4-yl)carbonyl]-N-(2-pyridinylmethyl)-10,11-dihydro-5H-pyrrolo[2,1-c][1,4]benzodiazepine-3-carboxamide], 16%; under `COc1cc(C(=O)N2Cc3ccc(C(=O)NCc4ccccn4)n3Cc3ccccc32)ccc1-c1ccccc1C` [Example 28, 10-[(2-Methoxy-2′-methyl-[1,1′-biphenyl]-4-yl)carbonyl]-N-(2-pyridinylmethyl)-10,11-dihydro-5H-pyrrolo[2,1-c][1,4]benzodiazepine-3-carboxamide], 20%. On to `COc1cc(-c2ccccc2C)c(Cl)cc1C(=O)N1Cc2ccc(C(=O)NCc3ccccn3)n2Cc2ccccc21` [Example 29, 10-[(6-Chloro-3-methoxy-2′-methyl-[1,1′-biphenyl]-4-yl)carbonyl]-N-(2-pyridinylmethyl)-10,11-dihydro-5H-pyrrolo[2,1-c][1,4]benzodiazepine-3-carboxamide], for which at 0.1 µM the inhibition was 12%.

In turn, `COc1cccc(-c2cc(OC)c(C(=O)N3Cc4ccc(C(=O)NCc5ccccn5)n4Cc4ccccc43)cc2Cl)c1` [Example 30, 10-[(6-Chloro-3,3′-dimethoxy-[1,1′-biphenyl]-4-yl)carbonyl]-N-(2-pyridinylmethyl)-10,11-dihydro-5H-pyrrolo[2,1-c][1,4]benzodiazepine-3-carboxamide] showed an inhibition at 0.1 µM of 14%. Under `COc1cc(C(=O)N2Cc3ccc(C(=O)NCc4ccccn4)n3Cc3ccccc32)ccc1-c1cccc2ccccc12` [Example 31, 10-[3-Methoxy-4-(naphthalen-1-yl)benzoyl]-N-(2-pyridinylmethyl)-10,11-dihydro-5H-pyrrolo[2,1-c][1,4]benzodiazepine-3-carboxamide] stands 31%; under `COc1ccccc1-c1ccc(C(=O)N2Cc3ccc(C(=O)NCc4ccccn4)n3Cc3ccccc32)cc1OC` [Example 32, 10-[(2,2′-Dimethoxy-[1,1′-biphenyl]-4-yl)carbonyl]-N-(2-pyridinylmethyl)-10,11-dihydro-5H-pyrrolo[2,1-c][1,4]benzodiazepine-3-carboxamide], 21%.

As to `COc1cccc(-c2ccc(C(=O)N3Cc4ccc(C(=O)NCc5ccccn5)n4Cc4ccccc43)cc2OC)c1` [Example 33, 10-[(2,3′-Dimethoxy-[1,1′-biphenyl]-4-yl)carbonyl]-N-(2-pyridinylmethyl)-10,11-dihydro-5H-pyrrolo[2,1-c][1,4]benzodiazepine-3-carboxamide], the inhibition at 0.1 µM turned out to be 21%. `O=C(NCc1ccccn1)c1ccc2n1Cc1ccccc1N(C(=O)c1ccc(-c3cccc4ccccc34)cc1Cl)C2` [Example 34, 10-[2-Chloro-4-(naphthalen-1-yl)benzoyl]-N-(2-pyridinylmethyl)-10,11-dihydro-5H-pyrrolo[2,1-c][1,4]benzodiazepine-3-carboxamide] returned an inhibition at 0.1 µM of 5%.

`Cc1cc(C(=O)N2Cc3ccc(C(=O)NCc4ccccn4)n3Cc3ccccc32)ccc1-c1ccccc1C(F)(F)F` [Example 35, 10-{[2-Methyl-2′-trifluoromethyl-[1,1′-biphenyl]-4-yl]carbonyl}-N-(2-pyridinylmethyl)-10,11-dihydro-5H-pyrrolo[2,1-c][1,4]benzodiazepine-3-carboxamide] showed an inhibition at 0.1 µM of 14%.

Turning to `COc1ccccc1-c1ccc(C(=O)N2Cc3ccc(C(=O)NCc4cccnc4)n3Cc3ccccc32)cc1C` [Example 36, 10-[(2′-Methoxy-2-methyl-[1,1′-biphenyl]-4-yl)carbonyl]-N-(3-pyridinylmethyl)-10,11-dihydro-5H-pyrrolo[2,1-c][1,4]benzodiazepine-3-carboxamide], testing at 0.1 µM gave an inhibition of 24%. `Cc1ccccc1-c1ccc(C(=O)N2Cc3ccc(C(=O)NCc4cccnc4)n3Cc3ccccc32)cc1C` [Example 37, 10-[(2,2′-Dimethyl-[1,1′-biphenyl]-4-yl)carbonyl]-N-(3-pyridinylmethyl)-10,11-dihydro-5H-pyrrolo[2,1-c][1,4]benzodiazepine-3-carboxamide] registered an inhibition at 0.1 µM of 7%. The same measure for `COc1cccc(-c2ccc(C(=O)N3Cc4ccc(C(=O)NCc5cccnc5)n4Cc4ccccc43)cc2C)c1` [Example 38, 10-[(3′-Methoxy-2-methyl-[1,1′-biphenyl]-4-yl)carbonyl]-N-(3-pyridinylmethyl)-10,11-dihydro-5H-pyrrolo[2,1-c][1,4]benzodiazepine-3-carboxamide]: 21%. Under `COc1ccccc1-c1ccc(C(=O)N2Cc3ccc(C(=O)NCc4cccnc4)n3Cc3ccccc32)cc1` [Example 39, 10-[(2′-Methoxy-[1,1′-biphenyl]-4-yl)carbonyl]-N-(3-pyridinylmethyl)-10,11-dihydro-5H-pyrrolo[2,1-c][1,4]benzodiazepine-3-carboxamide] stands 11%. For `Cc1ccccc1-c1ccc(C(=O)N2Cc3ccc(C(=O)NCc4cccnc4)n3Cc3ccccc32)cc1` [Example 40, 10-[(2′-Methyl-[1,1′-biphenyl]-4-yl)carbonyl]-N-(3-pyridinylmethyl)-10,11-dihydro-5H-pyrrolo[2,1-c][1,4]benzodiazepine-3-carboxamide], the inhibition at 0.1 µM was found to be 11%. Turning to `COc1cc(C(=O)N2Cc3ccc(C(=O)NCc4cccnc4)n3Cc3ccccc32)ccc1-c1ccccc1C` [Example 41, 10-[(2-Methoxy-2′-methyl-[1,1′-biphenyl]-4-yl)carbonyl]-N-(3-pyridinylmethyl)-10,11-dihydro-5H-pyrrolo[2,1-c][1,4]benzodiazepine-3-carboxamide], the inhibition at 0.1 µM stood at 16%.

For `COc1cc(-c2ccccc2C)c(Cl)cc1C(=O)N1Cc2ccc(C(=O)NCc3cccnc3)n2Cc2ccccc21` [Example 42, 10-[(6-Chloro-3-methoxy-2′-methyl-[1,1′-biphenyl]-4-yl)carbonyl]-N-(3-pyridinylmethyl)-10,11-dihydro-5H-pyrrolo[2,1-c][1,4]benzodiazepine-3-carboxamide], the inhibition at 0.1 µM is 8%.

Source of the values: patent US7064120B2, “Tricyclic pyridyl carboxamides and derivatives thereof tocolytic oxytocin receptor antagonists” (Wyeth, priority 2001, dated 2006).
